The source of these data is paper PMC6502651 (ChemMedChem, 2019).

Where “and” joins values, the source holds several entries; their conditions need not be identical. Equal values may be shown once. Read-outs that look alike come from different tables or passages of the source.

For test [1], the system named is mature stage V P. falciparum gametocytes. The test is described as follows: Gametocytocidal activity. It is filed as cell-based. The settings on record: Plasmodium falciparum, NF54, 48 h, read-out: Pf stage V gametocytes IC50.
Test [2] deals with P. berghei exo-erythrocytic forms. The test is described as follows: P. berghei-Luc liver stage assay. The class given is cell-based. The settings on record: for Selectivity index (SI) = (mammalian cell IC50)/(Pb EEF IC50): HepG2 vs Pb EEF; for IC50: Plasmodium berghei, 48 h, read-out: Pb EEF IC50.
In another test the target is human HDAC1 (hHDAC1) (Homo sapiens, UniProt Q13547). Briefly: In vitro testing on hHDAC1.
The next test concerns the target T1, human HDAC6 (hHDAC6) (Homo sapiens, UniProt Q9UBN7).
T1 sequence (Q9UBN7 1-1215): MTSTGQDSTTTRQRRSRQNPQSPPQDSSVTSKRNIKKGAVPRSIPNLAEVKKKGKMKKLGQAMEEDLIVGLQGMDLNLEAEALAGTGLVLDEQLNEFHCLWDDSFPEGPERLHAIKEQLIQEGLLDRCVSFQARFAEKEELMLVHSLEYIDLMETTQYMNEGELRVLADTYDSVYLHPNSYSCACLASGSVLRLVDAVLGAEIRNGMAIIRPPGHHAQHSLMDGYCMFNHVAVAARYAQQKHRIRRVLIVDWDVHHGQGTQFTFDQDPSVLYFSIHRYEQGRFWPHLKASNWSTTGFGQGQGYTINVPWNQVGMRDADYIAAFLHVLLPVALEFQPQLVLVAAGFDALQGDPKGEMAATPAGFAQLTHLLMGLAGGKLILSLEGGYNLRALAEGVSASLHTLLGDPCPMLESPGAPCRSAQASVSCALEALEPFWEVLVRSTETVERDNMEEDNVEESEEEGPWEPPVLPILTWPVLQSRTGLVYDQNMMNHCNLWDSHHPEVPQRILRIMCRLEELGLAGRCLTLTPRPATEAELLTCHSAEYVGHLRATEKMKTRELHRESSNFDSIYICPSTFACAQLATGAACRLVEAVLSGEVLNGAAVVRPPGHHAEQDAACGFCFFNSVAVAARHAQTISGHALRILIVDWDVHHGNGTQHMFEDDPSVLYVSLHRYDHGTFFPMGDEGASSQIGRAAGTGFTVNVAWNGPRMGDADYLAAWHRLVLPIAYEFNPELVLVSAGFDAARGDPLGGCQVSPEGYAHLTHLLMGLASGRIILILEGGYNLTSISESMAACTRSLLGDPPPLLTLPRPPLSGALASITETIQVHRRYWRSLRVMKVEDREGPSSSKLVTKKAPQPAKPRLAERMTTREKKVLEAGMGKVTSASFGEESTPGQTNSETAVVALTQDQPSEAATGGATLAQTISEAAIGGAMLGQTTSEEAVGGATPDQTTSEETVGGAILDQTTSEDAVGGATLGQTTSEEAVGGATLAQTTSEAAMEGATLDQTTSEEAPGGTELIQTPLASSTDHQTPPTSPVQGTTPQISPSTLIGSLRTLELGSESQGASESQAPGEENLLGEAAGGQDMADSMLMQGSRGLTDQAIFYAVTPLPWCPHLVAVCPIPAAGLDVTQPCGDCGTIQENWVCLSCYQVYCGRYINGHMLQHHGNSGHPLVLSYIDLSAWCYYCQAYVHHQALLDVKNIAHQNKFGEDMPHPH
Briefly: In vitro testing on hHDAC6.

In another test the test system is HepG2 cells. Briefly: HepG2 cytotoxicity bioluminescence assay. The class given is cell-based. The conditions noted are these: Homo sapiens, HepG2, 48 h, read-out: IC50 (HepG2).
Test [3] relates to 3D7 line of P. falciparum. Briefly: P. falciparum asexual intraerythrocytic growth inhibition. The class given is cell-based. The settings on record: for Selectivity index (SI) = (mammalian cell IC50)/(P. falciparum IC50): HepG2 vs Pf3D7.
Where [4] appears, read: Plasmodium falciparum, 3D7, read-out: IC50 (Pf3D7), asexual intraerythrocytic stage P. falciparum 3D7.
Where [5] appears, read: Plasmodium falciparum, 3D7, read-out: IC50 (Pf3D7).

human HDAC1 (hHDAC1), sequence (Q13547 whole entry): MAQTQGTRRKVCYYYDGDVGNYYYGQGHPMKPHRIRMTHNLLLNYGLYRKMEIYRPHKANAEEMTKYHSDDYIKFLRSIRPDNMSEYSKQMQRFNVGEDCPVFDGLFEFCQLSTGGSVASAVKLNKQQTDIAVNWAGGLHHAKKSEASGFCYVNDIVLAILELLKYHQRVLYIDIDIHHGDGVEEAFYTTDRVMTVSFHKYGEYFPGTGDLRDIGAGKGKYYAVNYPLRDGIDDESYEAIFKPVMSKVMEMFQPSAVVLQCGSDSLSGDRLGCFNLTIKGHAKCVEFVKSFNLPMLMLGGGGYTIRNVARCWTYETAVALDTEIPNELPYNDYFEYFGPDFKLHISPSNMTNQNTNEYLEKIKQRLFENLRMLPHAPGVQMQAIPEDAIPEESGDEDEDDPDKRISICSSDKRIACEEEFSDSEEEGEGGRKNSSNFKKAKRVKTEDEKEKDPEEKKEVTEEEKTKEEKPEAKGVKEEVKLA

As a reminder, the IC50 is the concentration needed to halve the response being measured. In the case of `Cc1cc(C)cc(CNC(=O)CN(Cc2ccc(C(=O)NO)cc2)C(=O)c2cc(C)cc(C)c2)c1` [Compound 2p, N-(2-((3,5-Dimethylbenzyl)amino)-2-oxoethyl)-N-(4-(hydroxycarbamoyl)benzyl)-3,5-dimethylbenzamide], the IC50 in test [1] amounted to 5270 nM. In test [2], the “Selectivity index (SI) = (mammalian cell IC50)/(Pb EEF IC50)” value was 35 and the IC50 is 580 nM.

For `CN(C)c1ccc(C(=O)N(CC(=O)NCc2ccccc2)Cc2ccc(C(=O)NO)cc2)cc1` [Compound 2i, N-(2-(Benzylamino)-2-oxoethyl)-4-(dimethylamino)-N-(4-(hydroxycarbamoyl)benzyl)benzamide], the 50% inhibitory concentration (IC50) came to 7.7 nM at human HDAC1 (hHDAC1), 620 nM with HepG2 cells and 22 nM in test [2]. The “Selectivity index (SI) = hHDAC1/hHDAC6” value on human HDAC6 (hHDAC6) is given as less than 1. Also, the “Selectivity index (SI) = (mammalian cell IC50)/(P. falciparum IC50)” value in test [3] is recorded as 64. Besides, the “Selectivity index (SI) = (mammalian cell IC50)/(Pb EEF IC50)” value in test [2] amounted to 28.

For `CNC(=O)CN(Cc1ccc(C(=O)NO)cc1)C(=O)c1ccccc1C` [Compound 2t, N-(4-(Hydroxycarbamoyl)benzyl)-2-methyl-N-(2-(methylamino)-2-oxoethyl)benzamide], the half-inhibitory concentration (IC50) against human HDAC1 (hHDAC1) is 2010 nM; at human HDAC6 (hHDAC6), 32 nM; in the test on HepG2 cells, more than 50000 nM; in test [3] (setting [4]), 54 to 120 nM; in test [2], 28000 nM. Moreover, at human HDAC6 (hHDAC6), the “Selectivity index (SI) = hHDAC1/hHDAC6” value turned out to be 63. Also, the “Selectivity index (SI) = (mammalian cell IC50)/(P. falciparum IC50)” value in test [3] was more than 704. Moreover, the “Selectivity index (SI) = (mammalian cell IC50)/(Pb EEF IC50)” value in test [2] is on record as more than 2.

Regarding `Cc1cc(C)cc(C(=O)N(CC(=O)NCc2ccc(C(C)(C)C)cc2)Cc2ccc(C(=O)NO)cc2)c1` [Compound 2o, N-(2-((4-(tert-Butyl)benzyl)amino)-2-oxoethyl)-N-(4-(hydroxycarbamoyl)benzyl)-3,5-dimethylbenzamide], in test [2], the “Selectivity index (SI) = (mammalian cell IC50)/(Pb EEF IC50)” value was 2 and the concentration for half-maximal inhibition (IC50) amounted to 16600 nM.

`Cc1ccc(CNC(=O)CN(Cc2ccc(C(=O)NO)cc2)C(=O)c2cc(C)cc(C)c2)cc1` [Compound 2k, N-(4-(Hydroxycarbamoyl)benzyl)-3,5-dimethyl-N-(2-((4-methylbenzyl)amino)-2-oxoethyl)benzamide]: in test [2], the “Selectivity index (SI) = (mammalian cell IC50)/(Pb EEF IC50)” value worked out at 70 and the IC50 was 210 nM.

In the case of `CC(C)c1ccc(C(=O)N(CC(=O)NC2CCCCC2)c2ccc(C(=O)NO)cc2)cc1` [Compound 2a, N-(2-(cyclohexylamino)-2-oxoethyl)-N-(4-(hydroxycarbamoyl)phenyl)-4-isopropylbenzamid], in test [3] (setting [5]), the IC50 was in the range of 570 to 77700 nM. Moreover, in test [2], the “Selectivity index (SI) = (mammalian cell IC50)/(Pb EEF IC50)” value was 4 and the 50% inhibitory concentration (IC50) amounted to 9700 nM.

In the case of `COc1ccccc1C(=O)N(CC(=O)NC(C)(C)C)Cc1ccc(C(=O)NO)cc1` [Compound 2f, N-(2-(tert-Butylamino)-2-oxoethyl)-N-(4-(hydroxycarbamoyl)benzyl)-2-methoxybenzamide], on human HDAC6 (hHDAC6), the “Selectivity index (SI) = hHDAC1/hHDAC6” value came to 82. The IC50 was more than 50000 nM in the test on HepG2 cells, 110 to 250 nM in test [3] (setting [4]) and 26700 nM in test [2]. The “Selectivity index (SI) = (mammalian cell IC50)/(Pb EEF IC50)” value in test [2] is recorded as more than 2.

For `CCN(CC)CCCC(C)Nc1ccnc2cc(Cl)ccc12` (stereo not shown) [chloroquine, reference compound], the IC50 in test [3] (setting [5]) amounted to 6.8 nM.

As for `CC(C)c1ccc(C(=O)N(CC(=O)NCc2ccccc2)Cc2ccc(C(=O)NO)cc2)cc1` [Compound 2h, N-(2-(Benzylamino)-2-oxoethyl)-N-(4-(hydroxycarbamoyl)benzyl)-4-isopropylbenzamide], the 50% inhibitory concentration (IC50) is 19 nM at human HDAC1 (hHDAC1); 51 nM on human HDAC6 (hHDAC6); 5000 to 13000 nM with HepG2 cells; 5.2 to 8.8 nM in test [3] (setting [4]); 5.2 nM in test [3] (read-out: IC50 (Pf3D7), asexual intraerythrocytic stage P. falciparum 3D7); 16 nM in test [2]. The “Selectivity index (SI) = hHDAC1/hHDAC6” value at human HDAC6 (hHDAC6) is given as less than 1. Moreover, the “Selectivity index (SI) = (mammalian cell IC50)/(P. falciparum IC50)” value in test [3] is 889–1483 and 889. Moreover, in test [2], the “Selectivity index (SI) = (mammalian cell IC50)/(Pb EEF IC50)” value is recorded as 289.

Turning to `Cc1cc(C)cc(C(=O)N(CC(=O)NCc2ccc(F)cc2)Cc2ccc(C(=O)NO)cc2)c1` [Compound 2m, N-(2-((4-Fluorobenzyl)amino)-2-oxoethyl)-N-(4-(hydroxycarbamoyl)benzyl)-3,5-dimethylbenzamide], in test [2], the “Selectivity index (SI) = (mammalian cell IC50)/(Pb EEF IC50)” value is given as 185 and the IC50 is 110 nM.

As for `Cc1ccccc1C(=O)N(CC(=O)NC(C)(C)C)Cc1ccc(C(=O)NO)cc1` [Compound 2e, N-(2-(tert-Butylamino)-2-oxoethyl)-N-(4-(hydroxycarbamoyl)benzyl)-2-methylbenzamide], the “Selectivity index (SI) = hHDAC1/hHDAC6” value on human HDAC6 (hHDAC6) is given as 47. The IC50 in the test on HepG2 cells was more than 50000 nM. Besides, in test [2], the “Selectivity index (SI) = (mammalian cell IC50)/(Pb EEF IC50)” value is on record as more than 5 and the concentration for half-maximal inhibition (IC50) was 9700 nM.

As to `CC(C)(C)c1ccc(C(=O)N(CC(=O)NCc2ccccc2)Cc2ccc(C(=O)NO)cc2)cc1` [Compound 2g, N-(2-(Benzylamino)-2-oxoethyl)-4-(tert-butyl)-N-(4-(hydroxycarbamoyl)benzyl)benzamide], the IC50 against human HDAC1 (hHDAC1) was 34 nM; on human HDAC6 (hHDAC6), 71 nM; with HepG2 cells, 5000 to 13000 nM; in test [3] (setting [5]), 5.2 to 8.8 nM; in test [2] it was 580 nM. Moreover, at human HDAC6 (hHDAC6), the “Selectivity index (SI) = hHDAC1/hHDAC6” value was less than 1. Further, the “Selectivity index (SI) = (mammalian cell IC50)/(P. falciparum IC50)” value in test [3] is on record as 889–1483. Moreover, the “Selectivity index (SI) = (mammalian cell IC50)/(Pb EEF IC50)” value in test [2] came to 23.

For `Cc1cc(C)cc(C(=O)N(CC(=O)NC2CCCCC2)c2ccc(C(=O)NO)cc2)c1` [Compound 2b, N-(2-(cyclohexylamino)-2-oxoethyl)-N-(4-(hydroxycarbamoyl)phenyl)-3,5-dimethylbenzamide], the IC50 in test [3] (setting [5]) was in the range of 570 to 77700 nM. For the same compound, in test [2], the “Selectivity index (SI) = (mammalian cell IC50)/(Pb EEF IC50)” value came to 2 and the 50% inhibitory concentration (IC50) is 20200 nM.

In the case of `Cc1cc(C)cc(C(=O)N(CC(=O)NCc2cccnc2)Cc2ccc(C(=O)NO)cc2)c1` [Compound 2r, N-(4-(Hydroxycarbamoyl)benzyl)-3,5-dimethyl-N-(2-oxo-2-((pyridin-3-ylmethyl)amino)ethyl)benzamide], the IC50 is 41900 nM with HepG2 cells, 79 nM in test [3] (setting [5]) and 16700 nM in test [2]. The “Selectivity index (SI) = (mammalian cell IC50)/(P. falciparum IC50)” value in test [3] is given as 530. For the same compound, the “Selectivity index (SI) = (mammalian cell IC50)/(Pb EEF IC50)” value in test [2] is 3.

With `Cc1cc(C)cc(C(=O)N(CC(=O)NCc2ccccc2)Cc2ccc(C(=O)NO)cc2)c1` [Compound 2j, N-(2-(Benzylamino)-2-oxoethyl)-N-(4-(hydroxycarbamoyl)benzyl)-3,5-dimethylbenzamide], the IC50 in the test on HepG2 cells turned out to be 9570 nM; in test [3] (setting [5]), 37 nM; in test [2], 73 nM. Moreover, the “Selectivity index (SI) = (mammalian cell IC50)/(P. falciparum IC50)” value in test [3] amounted to 259. Besides, the “Selectivity index (SI) = (mammalian cell IC50)/(Pb EEF IC50)” value in test [2] is given as 131.

For the compound `Cc1cc(C)cc(C(=O)N(CC(=O)NCc2ccc(Cl)cc2)Cc2ccc(C(=O)NO)cc2)c1` [Compound 2n, N-(2-((4-Chlorobenzyl)amino)-2-oxoethyl)-N-(4-(hydroxycarbamoyl)benzyl)-3,5-dimethylbenzamide], in test [2], the “Selectivity index (SI) = (mammalian cell IC50)/(Pb EEF IC50)” value is 21 and the IC50 was found to be 1000 nM.

Take `Cc1cccc(CNC(=O)CN(Cc2ccc(C(=O)NO)cc2)C(=O)c2cc(C)cc(C)c2)c1` [Compound 2q, N-(4-(Hydroxycarbamoyl)benzyl)-3,5-dimethyl-N-(2-((3-methylbenzyl)amino)-2-oxoethyl)benzamide]: in test [2], the “Selectivity index (SI) = (mammalian cell IC50)/(Pb EEF IC50)” value worked out at 157 and the IC50 was found to be 130 nM.
